pIC50: −log10 of the molar value. Where a name gives a salt, the structure may show the parent alone.
Tests used:
[1] = test system: LTB4 biosynthesis in human whole blood; assay: Inhibition of LTB4 biosynthesis in human whole blood (calcium ionophore A23187-induced); assay type: cell-based; conditions: human heparinized whole blood, A23187, 30 min at 37° C.
Experimental: (§1) Inhibition of leukotriene biosynthesis by representative compounds of the present invention was evaluated in assays involving calcium ionophore-induced LTB4 biosynthesis expressed by human polymorphonuclear leukocytes (PMNL) or human whole blood. Human PMNL were isolated from heparinized (20 USP units/mL) venous blood using Ficoll-Hypaque Mono-Poly Resolving Medium. Human PMNL suspensions (5×10^6 cells/250 μL) were preincubated with test compounds or vehicle for 15 min at 37° C. followed by calcium ionophore A23187 challenge (final concentration of 8.3 μM) and the reaction terminated after 10 rain by adding two volumes of methanol containing prostaglandin B2 as an internal recovery standard. The methanol extracts were analyzed for LTB4 content by HPLC or radioimmunoassay.
The assay using human heparinized whole blood was incubated for 30 minutes at 37° C. after adding […] of ionophore A23187. The plasma layer was obtained by centrifugation and deproteinized by the addition of four volumes of methanol. The methanol extract was analyzed for LTB4 by HPLC or radioimmunoassay.

[2] = test system: LTB4 biosynthesis in human polymorphonuclear leukocytes (PMNL); assay: Inhibition of LTB4 biosynthesis in human PMNL (calcium ionophore A23187-induced); assay type: cell-based; conditions: for pIC50: A23187 8.3 μM, 15 min preincubation; for Human PMNL, inhibition of LTB4 biosynthesis, % @ 1.6: @ 1.6 (μM)
Experimental: as §1

leukotriene biosynthesis = assay: Inhibition of leukotriene biosynthesis in vivo, rat peritoneal anaphylaxis model; conditions: one hour prior to antigen challenge
Experimental: Inhibition of the biosynthesis of leukotrienes in vivo after oral administration of compound was determined using a rat peritoneal anaphylaxis model in a similar manner as that described by Young and coworkers (Young, P. R.; Dyer, R. D.; Carter, G. W. Fed. Proc., Fed. Am. Soc. Exp. Biol. 1985, 44, 1185). In this model rats were injected intraperitoneally (ip) with rabbit antibody to bovine serum albumin (BSA) and three hours later injected ip with BSA to induce an antigen-antibody response. Rats were sacrificed 15 minutes after this challenge and the peritoneal fluids were collected and analyzed for leukotriene levels. Test compounds were administered by garage one hour prior to the antigen challenge. Percent inhibition values were determined by comparing the treatment group to the mean of the control group. Compounds of this invention are orally effective in preventing the in vivo bio-synthesis of leukotrienes as illustrated for representative examples shown in Table 2.

Row | SMILES | pIC50 ([1]; Homo sapiens, 0.5 h) | pIC50 [2] | also measured
1 | CC(C)c1ccc2c(c1)c(SC(C)(C)C)c([C@@H]1C[C@H]1CN(O)C(N)=O)n2Cc1ccc(Cl)cc1 (relative stereo) [Example 14, N-hydroxy-N-[trans-2-(1-(4-chlorophenylmethyl)-3-(1,1-dimethylethylthio)-5-(1-methylethyl)indol-2-yl)cyclopropyl]methylurea] | 5.60 |  | Human PMNL, inhibition of LTB4 biosynthesis, % @ 0.78 ([2]; @ 0.78 (μM)): 40%
2 | CC(C)c1ccc2c(c1)c(SC(C)(C)C)c([C@@H]1C[C@H]1CNC(N)=O)n2Cc1ccc(Cl)cc1 (relative stereo) [Example 23, N-[trans-2-(1-(4-chlorophenylmethyl)-3-(1,1-dimethylethylthio)-5-(1-methylethyl)indol-2-yl)cyclopropyl]methyl urea] | 5.57 | 6.40 | 
3 | CC(C)c1ccc2c(c1)c(SC(C)(C)C)c(CC(C)(C)NC(=O)N(C)O)n2Cc1ccc(Cl)cc1 [Example 1] | 5.89 | 6.82 | 
4 | CC(C)c1ccc2c(c1)c(SC(C)(C)C)c(CC(C)(C)C=NO)n2Cc1ccc(Cl)cc1 [Example 2, 2,2-dimethyl-3-[1-(4-chlorophenylmethyl)-3-(1,1-dimethylethylthio)-5-(1-methylethyl)indol-2-yl]propionaldehyde oxime] | 5.66 | 6.57 | Percent Leukotriene inhibition at 100 μmol/kg oral dose (leukotriene biosynthesis): 46%
5 | CC(C)c1ccc2c(c1)c(SC(C)(C)C)c(CC(C)(C)CN(O)C(N)=O)n2Cc1ccc(Cl)cc1 [Example 3, N-hydroxy-N-2,2-dimethyl-3-[(1-(4-chlorophenylmethyl)-3-(1,1-dimethylethylthio)-5-(1-methylethyl))indol-2-yl]propyl urea] | 5.80 | 6.77 | Percent Leukotriene inhibition at 100 μmol/kg oral dose (leukotriene biosynthesis): 68%
6 | CC(C)c1ccc2c(c1)c(SC(C)(C)C)c(CCNC(=O)N(C)O)n2Cc1ccc(Cl)cc1 [Example 4, N'-hydroxy-N'methyl-N-2-[(1-(4-chlorophenylmethyl)-3-(1,1-dimethylethylthio)-5-(1-methylethyl))indol-2-yl]ethyl urea] | 5.17 | 6.24 | 
7 | CC(C)c1ccc2c(c1)c(SC(C)(C)C)c(CC(C)(C)CNC(N)=O)n2Cc1ccc(Cl)cc1 [Example 5, N-2,2-dimethyl-3-[(1-(4-chlorophenylmethyl)-3-(1,1-dimethylethyl-thio)-5-(1-methylethyl))indol-2-yl]propyl urea] | 6.15 | 6.74 | Percent Leukotriene inhibition at 100 μmol/kg oral dose (leukotriene biosynthesis): 86%
8 | CC(C)c1ccc2c(c1)c(SC(C)(C)C)c(CC(C)(C)C(=O)NCCNC(=O)N(C)O)n2Cc1ccc(Cl)cc1 [Example 6, N'-hydroxy-N'-methyl-N-2-[3-(1-(4-chlorophenylmethyl)-3-(1,1-dimethylethylthio)-5-(1-methylethyl)indol-2-yl)-2,2-dimethylpropionylamino]ethyl urea] | 5.92 | 6.82 | Percent Leukotriene inhibition at 100 μmol/kg oral dose (leukotriene biosynthesis): 86%
9 | CC(C)c1ccc2c(c1)c(SC(C)(C)C)c(CC(C)(C)C(=O)NCCC(=O)O)n2Cc1ccc(Cl)cc1 [Example 6.2] | 5.85 | 6.51 | 
10 | CC(C)c1ccc2c(c1)c(SC(C)(C)C)c(CC(C)(C)CNCCCO)n2Cc1ccc(Cl)cc1 [Example 7, 1-(4-chlorophenylmethyl)-2-[2,2-dimethyl-3-((3-hydroxypropyl)amino)propyl]-3-(1,1-dimethylethylthio)-5-(1-methylethyl)indole] | 5.16 | 5.38 | 
11 | CC(C)c1ccc2c(c1)c(SC(C)(C)C)c(CC(C)(C)NC(N)=O)n2Cc1ccc(Cl)cc1 [Example 8, N-2-[2-methyl-3-(1-(4-chlorophenylmethyl)-3-(1,1-dimethylethylthio)-5-(1-methylethyl)indol-2-yl)]propyl urea] | 5.28 | 6.40 | 
12 | CCOC(=O)CCNC(=O)NC(C)(C)Cc1c(SC(C)(C)C)c2cc(C(C)C)ccc2n1Cc1ccc(Cl)cc1 [Example 9] | 5.25 |  | Human PMNL, inhibition of LTB4 biosynthesis, % @ 1.6 [2]: 77%
13 | CC(C)c1ccc2c(c1)c(SC(C)(C)C)c(CC(C)(C)NC(=O)NCCC(=O)O)n2Cc1ccc(Cl)cc1 [Example 10] | 5.60 |  | Human PMNL, inhibition of LTB4 biosynthesis, % @ 1.6 [2]: 70%
14 | CCOC(=O)C(C)(C)Cc1c(C(=O)CCNC(=O)N(C)O)c2cc(C(C)C)ccc2n1Cc1ccc(Cl)cc1 [Example 11, N'-hydroxy-N'-methyl-N-'[1-(4-chlorophenylmethyl)-5-(1-methylethyl)-2-((2-methyl-2-ethoxycarbonyl)propyl)indol-2-yl]-3-oxopropylurea] |  | 5.82 | pIC50 ([1]; 0.5 h): 5.16
15 | CC(C)c1ccc2c(c1)c(SC(C)(C)C)c(CC(C)(C)C=NNC(=N)N)n2Cc1ccc(Cl)cc1 [Example 12, 1-(4-chlorophenylmethyl)-3-(1,1-dimethylethylthio)-2-[3-(2,2-dimethyl-1-guanidinylimino)propyl]-(1-methylethyl)indole] | 5.89 |  | Human PMNL, inhibition of LTB4 biosynthesis, % @ 3.1 ([2]; @ 3.1 (μM)): 100%
16 | CC(C)c1ccc2c(c1)c(SC(C)(C)C)c(CC(C)(C)NC(=O)NCCC(=O)O)n2Cc1ccc(Cl)cc1 [Example 13, 3-[3-(1-(4-chlorophenylmethyl)-3-(1,1dimethylethylthio)-5-(1-methylethyl)indol-2-yl)-2-aminocarbonylamino-2-methylpropyl]propanoic acid, sodium salt] |  |  | pIC50 ([1]; sodium salt): 5.52
17 | CC(C)c1ccc2c(c1)c(SC(C)(C)C)c(CC(C)(C)C(=O)O)n2Cc1ccncc1 [Example 15, 3-[3-(1,1-dimethylethylthio)-5-(1-methylethyl)-1-(4-pyridinylmethyl)indol-2-yl]-2,2-dimethylpropanoic acid] | 6.05 | 7.05 | 
18 | CC(C)c1ccc2c(c1)c(SC(C)(C)C)c(CC(C)(C)C(=O)O)n2Cc1cccs1 [Example 16] | 5.26 |  | 
19 | CC(C)c1ccc2c(c1)c(SC(C)(C)C)c(CC(C)(C)C=NOCC(=O)O)n2Cc1ccc(Cl)cc1 [Example 20] | 6.17 |  | Percent Leukotriene inhibition at 100 μmol/kg oral dose (leukotriene biosynthesis): 99%
20 | CC(C)c1ccc2c(c1)c(SC(C)(C)C)c(CC(C)(C)CN)n2Cc1ccc(Cl)cc1 [Example 21] | 5.96 |  | 
21 | CC(=O)NCC(C)(C)Cc1c(SC(C)(C)C)c2cc(C(C)C)ccc2n1Cc1ccc(Cl)cc1 [Example 22] | 5.68 |  | 

Source: US5459150A, “Indole derivatives which inhibit leukotriene biosynthesis” (Abbott Laboratories, priority 1993, dated 1995)
